Counter-ions that a name gives are not always drawn.
biological target: T1, Nav1.7 (or SCN9A) channel (Homo sapiens, UniProt Q15858); assay: Nav1.7 (hSCN9A) PatchXpress electrophysiology in HEK cells; assay type: cell-based; conditions: PatchXpress platform; HEK cells stably expressing hSCN9A; held at V1/2 of inactivation; calculated from single point % inhibition; read-out: Nav1.7 EIC50 (estimated IC-50)
T1 construct: expressed in transfected cells
Method: The ability of the compounds of formula (I) to block the Nav1.7 (or SCN9A) channel were measured using the assay described below.
Human Embryonic Kidney (HEK) cells were transfected with an hSCN9A construct using lipofectamine reagent (Invitrogen), using standard techniques. Cells stably expressing the hSCN9A constructs were identified by their resistance to G-418 (400 μg/ml). Clones were screened for expression using the whole-cell voltage-clamp technique.
HEK cells stably transfected with hSCN9A were maintained in DMEM medium supplemented with 10% heat-inactivated fetal bovine serum and 400 µg/ml G-418 in an incubator at 37° C. with a humidified atmosphere of 10% CO2. For HTS, cells were harvested from flasks by trypsinization and replated in an appropriate multi-well plate (typically 96 or 384 wells/plate) such that confluence would be achieved within 24 hours of plating. For electrophysiological studies, cells were removed from the culture flask by brief trypsinization and re-plated at low density onto glass cover slips. Cells were typically used for electrophysiological experiments within 24 to 72 hours after plating.
Cover slips containing HEK cells expressing hSCN9A were placed in a bath on the stage of an inverted microscope and perfused (approximately 1 ml/minutes) with extracellular solution of the following composition: 138 mM NaCl, 2 mM CaCl2, 5.4 mM KCl, 1 mM MgCl2, 10 mM glucose, and 10 mM HEPES, pH 7.4, with NaOH. […] The osmolarity of the extracellular and intracellular solutions was 300 mOsm/kg and 295 mOsm/kg, respectively. All recordings were made at room temperature (22-24° C.) using AXOPATCH 200B amplifiers and PCLAMP software (Axon Instruments, Burlingame, Calif.).
hSCN9A currents in HEK cells were measured using the whole-cell configuration of the patch-clamp technique (Hamill et al., 1981). Uncompensated series resistance was typically 2 to 5 mega ohms and >85% series resistance compensation was routinely achieved. As a result, voltage errors were negligible and no correction was applied. Current records were acquired at 20 to 50 KHz and filtered at 5 to 10 KHz.
HEK cells stably transfected with hSCN9A were viewed under Hoffman contrast optics and placed in front of an array of flow pipes emitting either control or compound-containing extracellular solutions. All compounds were dissolved in dimethyl sulfoxide to make 10 mM stock solutions, which were then diluted into extracellular solution to attain the final concentrations desired. […] The voltage-dependence of inactivation was determined by applying a series of depolarizing prepulses (8 sec long in 10 mV increments) from a negative holding potential. The voltage was then immediately stepped to 0 mV to assess the magnitude of the sodium current. Currents elicited at 0 mV were plotted as a function of prepulse potential to allow estimation of the voltage at which 50% of the channels were inactivated (midpoint of inactivation or V1/2). Compounds were tested for their ability to inhibit hSCN9A sodium channels by activating the channel with a 20 msec voltage step to 0 mV following an 8 second conditioning prepulse to the empirically determined V1/2. Compound effect (% inhibition) was determined by difference in current amplitude before and after application of test compounds. For ease of comparison, “estimated IC-50” (EIC50) values were calculated from single point electrophysiology data by the following equation, (tested concentration, uM)×(100-% inhibition/% inhibition). Inhibition values <20% and >80% were excluded from the calculation.
Electrophysiological assays were conducted with PatchXpress 7000 hardware and associated software (Molecular Devices Corp). All assay buffers and solutions were identical to those used in conventional whole-cell voltage clamp experiments described above. hSCN9A cells were grown as above to 50%-80% confluency and harvested by trypsinization. […]

T1 sequence (Q15858 whole entry): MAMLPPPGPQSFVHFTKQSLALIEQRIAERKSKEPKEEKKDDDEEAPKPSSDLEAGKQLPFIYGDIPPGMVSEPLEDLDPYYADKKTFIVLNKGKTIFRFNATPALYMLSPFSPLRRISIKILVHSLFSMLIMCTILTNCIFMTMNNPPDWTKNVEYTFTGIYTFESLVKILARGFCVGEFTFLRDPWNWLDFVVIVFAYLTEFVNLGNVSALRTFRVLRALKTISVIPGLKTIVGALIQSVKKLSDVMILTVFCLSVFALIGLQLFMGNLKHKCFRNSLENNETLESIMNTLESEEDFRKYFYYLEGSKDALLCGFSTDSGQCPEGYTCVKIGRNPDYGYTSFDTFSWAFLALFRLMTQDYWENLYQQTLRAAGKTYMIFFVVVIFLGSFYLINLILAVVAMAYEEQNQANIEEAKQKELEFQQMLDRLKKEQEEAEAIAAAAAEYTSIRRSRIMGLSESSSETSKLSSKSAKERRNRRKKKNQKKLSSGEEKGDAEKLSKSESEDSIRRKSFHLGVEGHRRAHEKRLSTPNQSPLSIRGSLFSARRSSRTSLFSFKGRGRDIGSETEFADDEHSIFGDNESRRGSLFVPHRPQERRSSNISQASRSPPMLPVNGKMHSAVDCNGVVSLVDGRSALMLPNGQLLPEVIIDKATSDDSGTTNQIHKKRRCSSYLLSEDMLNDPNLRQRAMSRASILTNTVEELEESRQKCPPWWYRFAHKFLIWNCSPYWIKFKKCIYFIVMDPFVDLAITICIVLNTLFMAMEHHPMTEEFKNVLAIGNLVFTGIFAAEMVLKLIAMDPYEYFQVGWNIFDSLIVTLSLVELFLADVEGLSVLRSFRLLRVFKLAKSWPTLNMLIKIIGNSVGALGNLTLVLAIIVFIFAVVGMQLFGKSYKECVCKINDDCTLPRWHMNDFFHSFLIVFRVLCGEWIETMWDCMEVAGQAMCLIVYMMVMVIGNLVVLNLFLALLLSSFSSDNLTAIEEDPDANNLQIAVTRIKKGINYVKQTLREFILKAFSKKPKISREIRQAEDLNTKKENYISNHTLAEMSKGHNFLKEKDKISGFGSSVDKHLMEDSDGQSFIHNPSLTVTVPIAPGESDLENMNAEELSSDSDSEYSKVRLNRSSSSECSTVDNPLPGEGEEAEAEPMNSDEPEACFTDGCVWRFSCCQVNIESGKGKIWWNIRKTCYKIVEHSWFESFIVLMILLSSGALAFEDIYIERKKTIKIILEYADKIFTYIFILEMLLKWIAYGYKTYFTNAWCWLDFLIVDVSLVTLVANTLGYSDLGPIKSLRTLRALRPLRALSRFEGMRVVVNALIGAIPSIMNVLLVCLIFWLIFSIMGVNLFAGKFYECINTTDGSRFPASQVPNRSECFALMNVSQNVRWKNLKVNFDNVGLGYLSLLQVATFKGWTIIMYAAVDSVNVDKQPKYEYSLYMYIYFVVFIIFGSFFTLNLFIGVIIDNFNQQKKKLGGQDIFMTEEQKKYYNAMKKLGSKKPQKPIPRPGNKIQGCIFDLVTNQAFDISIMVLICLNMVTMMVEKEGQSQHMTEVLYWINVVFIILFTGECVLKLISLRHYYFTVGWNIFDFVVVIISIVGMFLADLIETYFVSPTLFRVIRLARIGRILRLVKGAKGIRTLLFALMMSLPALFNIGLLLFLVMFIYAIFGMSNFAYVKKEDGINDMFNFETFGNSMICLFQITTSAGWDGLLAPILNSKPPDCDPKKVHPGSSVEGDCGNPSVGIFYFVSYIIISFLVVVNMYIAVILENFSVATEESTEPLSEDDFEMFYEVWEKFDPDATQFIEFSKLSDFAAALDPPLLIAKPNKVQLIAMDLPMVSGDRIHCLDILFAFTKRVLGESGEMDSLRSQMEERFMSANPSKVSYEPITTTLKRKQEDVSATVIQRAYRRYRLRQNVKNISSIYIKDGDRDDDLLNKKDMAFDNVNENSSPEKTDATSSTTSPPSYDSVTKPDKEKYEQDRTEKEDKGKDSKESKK

Q: How did the IC50 turn out when O=S(=O)(Nc1nncs1)c1cc(Cl)c(Oc2cc(Cl)c(-c3cccc(F)c3)cc2-c2ccnnc2)cc1F [Example 26, 5-Chloro-4-{[2-chloro-3′-fluoro-5-(pyridazin-4-yl)biphenyl-4-yl]oxy}-2-fluoro-N-(1,3,4-thiadiazol-2-yl)benzenesulfonamide] was run?
A: Its IC50 is 2.3 nM.

Q: Which IC50 does the source give for O=S(=O)(Nc1nncs1)c1cc(Cl)c(Oc2cc(Cl)c(-c3ccccc3F)cc2-c2ccnnc2)cc1F [Example 27, 5-Chloro-4-{[2-chloro-2′-fluoro-5-(pyridazin-4-yl)biphenyl-4-yl]oxy}-2-fluoro-N-(1,3,4-thiadiazol-2-yl)benzenesulfonamide] here?
A: The IC50 was 0.9 nM.

Q: How did the IC50 turn out when O=S(=O)(Nc1nncs1)c1cc(Cl)c(Oc2cc(Cl)c(-c3cccc(C(F)(F)F)c3)cc2-c2ccnnc2)cc1F [Example 28, 5-Chloro-4-{[2-chloro-5-(pyridazin-4-yl)-3′-(trifluoromethyl)biphenyl-4-yl]oxy}-2-fluoro-N-(1,3,4-thiadiazol-2-yl)benzenesulfonamide] was run?
A: Its IC50 is 0.9 nM.

Q: With O=S(=O)(Nc1nncs1)c1cc(Cl)c(Oc2ccc(-c3ccc(Cl)c(C(F)(F)F)c3)cc2-c2ccnnc2)cc1F [Example 29, 5-Chloro-4-{[4′-chloro-3-(pyridazin-4-yl)-3′-(trifluoromethyl)biphenyl-4-yl]oxy}-2-fluoro-N-(1,3,4-thiadiazol-2-yl)benzenesulfonamide] as the compound, how does the IC50 read?
A: The IC50 was 0.8 nM.

Q: For O=S(=O)(Nc1nncs1)c1cc(Cl)c(Oc2ccc(-c3ccc(C(F)(F)F)nc3)cc2-c2ccnnc2)cc1F [Example 30, 5-Chloro-2-fluoro-4-{2-(pyridazin-4-yl)-4-[6-(trifluoromethyl)pyridin-3-yl]phenoxy}-N-(1,3,4-thiadiazol-2-yl)benzenesulfonamide], which IC50 is on record?
A: The IC50 was 23 nM.

Q: O=S(=O)(Nc1nncs1)c1cc(Cl)c(Oc2ccc(-c3cccc(C(F)(F)F)n3)cc2-c2ccnnc2)cc1F [Example 31, 5-Chloro-2-fluoro-4-{2-(pyridazin-4-yl)-4-[6-(trifluoromethyl)pyridin-2-yl]phenoxy}-N-(1,3,4-thiadiazol-2-yl)benzenesulfonamide] was tested. Which IC50 did it give?
A: The IC50 was 16 nM.

Q: N#Cc1cccc(-c2ccc(Oc3cc(F)c(S(=O)(=O)Nc4nncs4)cc3Cl)c(-c3c[nH]nc3N)c2)c1 [Example 32, 4-{[3-(5-Amino-1H-pyrazol-4-yl)-3′-cyanobiphenyl-4-yl]oxy}-5-chloro-2-fluoro-N-(1,3,4-thiadiazol-2-yl)benzenesulfonamide] was tested. Which IC50 did it give?
A: Its IC50 is 5.3 nM.

Q: Which IC50 does the source give for O=S(=O)(Nc1nncs1)c1cc(Cl)c(Oc2ccc(-c3ccnc(C(F)(F)F)c3)cc2-c2ccnnc2)cc1F [Example 33] here?
A: Its IC50 is 16 nM.

Q: With O=S(=O)(Nc1nncs1)c1cc(Cl)c(Oc2ccc(-c3ccc(C(F)(F)F)cc3)cc2-c2ccnc(N3CCNCC3)c2)cc1F [Example 34, 5-Chloro-2-fluoro-4-({3-[2-(piperazin-1-yl)pyridin-4-yl]-4′-(trifluoromethyl)biphenyl-4-yl}oxy)-N-(1,3,4-thiadiazol-2-yl)benzenesulfonamide, hydrochloride] as the compound, how does the IC50 read?
A: Its IC50 is 0.5 nM.

Q: For O=S(=O)(Nc1ccncn1)c1cc(Cl)c(Oc2ccc(-c3ccc(C(F)(F)F)cc3)cc2-c2ccnc(N3CCNCC3)c2)cc1F [Example 35, 5-Chloro-2-fluoro-4-({3-[2-(piperazin-1-yl)pyridin-4-yl]-4′-(trifluoromethyl)biphenyl-4-yl}oxy)-N-(pyrimidin-4-yl)benzenesulfonamide hydrochloride salt], which IC50 is on record?
A: The IC50 was 2.2 nM.

Q: For O=S(=O)(Nc1nncs1)c1cc(Cl)c(Oc2cc(-c3cccc(F)c3)c(Cl)cc2-c2ccnnc2)cc1F [Example 36, 5-Chloro-4-[(6-chloro-3′-fluoro-4-pyridazin-4-ylbiphenyl-3-yl)oxy]-2-fluoro-N-1,3,4-thiadiazol-2-ylbenzenesulfonamide], which IC50 is on record?
A: Its IC50 is 11 nM.

Q: For O=S(=O)(Nc1nncs1)c1cc(Cl)c(Oc2cc(-c3ccc(F)cc3)c(Cl)cc2-c2ccnnc2)cc1F [Example 37, 5-Chloro-4-[(6-chloro-4′-fluoro-4-pyridazin-4-ylbiphenyl-3-yl)oxy]-2-fluoro-N-1,3,4-thiadiazol-2-ylbenzenesulfonamide], which IC50 is on record?
A: Its IC50 is 12 nM.

Q: For O=S(=O)(Nc1nncs1)c1cc(Cl)c(Oc2cc(-c3ccccc3F)c(Cl)cc2-c2ccnnc2)cc1F [Example 38, 5-Chloro-4-[(6-chloro-2′-fluoro-4-pyridazin-4-ylbiphenyl-3-yl)oxy]-2-fluoro-N-1,3,4-thiadiazol-2-ylbenzenesulfonamide], which IC50 is on record?
A: Its IC50 is 18 nM.

Q: Which IC50 does the source give for N#Cc1cccc(-c2ccc(Oc3cc(F)c(S(=O)(=O)Nc4nncs4)cc3Cl)c(-c3ccnnc3)c2)c1 [Example 39, 5-chloro-4-[(3′-cyano-3-pyridazin-4-ylbiphenyl-4-yl)oxy]-2-fluoro-N-1,3,4-thiadiazol-2-ylbenzenesulfonamide] here?
A: Its IC50 is 7.7 nM.

Q: O=S(=O)(Nc1ncccn1)c1cc(Cl)c(Oc2ccc(-c3ccc(C(F)(F)F)cc3)cc2-c2ccnc(N3CCNCC3)c2)cc1F [Example 40, 5-chloro-2-fluoro-4-{[3-(2-piperazin-1-ylpyridin-4-yl)-4′-(trifluoromethyl)biphenyl-4-yl]oxy}-N-pyrimidin-2-ylbenzenesulfonamide] was tested. Which IC50 did it give?
A: Its IC50 is 1 nM.

Source: patent US8772293B2, “Chemical compounds” (Pfizer Limited, priority 2010, dated 2014)
